Earlier results in US20100284933A1, “Biomarkers of Multiple Sclerosis” (Biogen Idec MA Inc., priority 2006, published 2010).

Tests used:
PBRs = PBRs (Homo sapiens, UniProt P30536); settings: background statement
CBRs = settings: background statement

PBRs, sequence (P30536 whole entry): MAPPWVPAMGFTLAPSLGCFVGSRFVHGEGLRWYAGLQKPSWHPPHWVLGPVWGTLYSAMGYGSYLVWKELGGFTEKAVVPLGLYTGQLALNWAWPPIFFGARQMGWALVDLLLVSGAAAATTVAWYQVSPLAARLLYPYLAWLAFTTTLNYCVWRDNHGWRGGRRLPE

Row | SMILES | affinity for PBRs (PBRs) | affinity for CBRs (CBRs)
1 | CCC(C)N(C)C(=O)c1cc2ccccc2c(-c2ccccc2Cl)n1 (stereo not shown) [PK 11195] | high affinity | negligible affinity
2 | CN1C(=O)CN=C(c2ccc(Cl)cc2)c2cc(Cl)ccc21 [Ro 5-4864, 4′-chlorodiazepam] | high affinity | negligible affinity
